# DBAASP
# Assays:
# Test in all cases: ≥ marks a high value that may be exact or a test limit, other limits are often not marked, values filed in µg/mL are converted to µM
# [1] = system: Staphylococcus aureus ATCC 25923
# [2] = system: Escherichia coli ATCC 25922
# [3] = system: Candida albicans ATCC 2002
# [4] = system: Pseudomonas aeruginosa CMCCB 10104
# [5] = system: Klebsiella pneumoniae ATCC 13883
# [6] = system: Staphylococcus aureus ATCC 29213
SMILES,MIC [1] [µM],MIC [2] [µM],MIC [3] [µM],MIC [4] [µM],MIC [5] [µM],MIC [6] [µM]
CC[C@H](C)[C@H](NC(=O)CN)C(=O)N[C@@H](Cc1ccccc1)C(=O)N[C@H](C(=O)N[C@@H](CC(C)C)C(=O)N[C@H](C(=O)N[C@@H](CCCCN)C(=O)NCC(=O)N[C@@H](C)C(=O)N[C@@H](C)C(=O)N[C@@H](CCCCN)C(=O)N[C@@H](CC(C)C)C(=O)N[C@H](C(=O)NCC(=O)N[C@@H](CCCCN)C(=O)N[C@H](C(=O)N[C@H](C(=O)N[C@@H](C)C(=O)N[C@@H](CCCCN)C(=O)N[C@@H](CCC(=O)O)C(=O)N[C@@H](C)C(=O)NCC(=O)N[C@@H](CCCCN)C(=O)N[C@H](C(=O)NCC(=O)N[C@@H](CC(C)C)C(=O)N[C@@H](CCC(=O)O)C(=O)N[C@@H](CC(C)C)C(=O)N[C@@H](CCSC)C(=O)N[C@@H](C)C(=O)N[C@H]1CSSC[C@@H](C(=O)O)NC(=O)[C@H](CCC(N)=O)NC(=O)[C@H](CC(N)=O)NC(=O)[C@H]([C@@H](C)O)NC(=O)[C@H]([C@@H](C)CC)NC(=O)[C@H](CCCCN)NC1=O)[C@@H](C)O)C(C)C)[C@@H](C)O)[C@@H](C)CC)[C@@H](C)CC)[C@@H](C)O [GIFTLIKGAAKLIGKTVAKEAGKTGLELMACKITNQC],1.13,2.22,2.22,1.13,–,–
CC[C@H](C)[C@H](NC(=O)CNC(=O)[C@H](CCCCN)NC(=O)CNC(=O)[C@H](C)NC(=O)[C@H](Cc1ccccc1)NC(=O)[C@H](CCCCN)NC(=O)[C@H](CO)NC(=O)[C@H](Cc1ccccc1)NC(=O)[C@H](CC(C)C)NC(=O)CN)C(=O)N[C@@H](CCCCN)C(=O)N[C@@H](CC(=O)O)C(=O)N[C@@H](CC(C)C)C(=O)N[C@H](C(=O)N[C@@H](Cc1ccccc1)C(=O)N[C@@H](CCCCN)C(=O)NCC(=O)N[C@H](C(=O)N[C@@H](CCCCN)C(=O)N[C@@H](Cc1cnc[nH]1)C(=O)N[C@H](C(=O)NCC(=O)N[C@@H](CCCCN)C(=O)N[C@@H](CCC(=O)O)C(=O)N[C@H](C(=O)NCC(=O)N[C@@H](CCSC)C(=O)N[C@@H](CC(=O)O)C(=O)N[C@H](C(=O)N[C@H](C(=O)N[C@@H](CCCN=C(N)N)C(=O)N[C@H](C(=O)NCC(=O)N[C@H](C(=O)N[C@@H](CC(=O)O)C(=O)N[C@H](C(=O)N[C@@H](C)C(=O)NCC(=O)N[C@H]1CSSC[C@@H](C(=O)O)NC(=O)[C@H](CCC(=O)O)NC(=O)CNC(=O)[C@H](CCCCN)NC(=O)[C@H]([C@@H](C)CC)NC(=O)[C@H](CCCCN)NC1=O)C(C)C)[C@@H](C)CC)[C@@H](C)O)[C@@H](C)CC)C(C)C)C(C)C)[C@@H](C)CC)C(C)C)[C@@H](C)CC [GLFSKFAGKGIKDLIFKGVKHIGKEVGMDVIRTGIDVAGCKIKGEC],1.11,1.11,0.555,0.555,–,–
CC[C@H](C)[C@H](NC(=O)CN)C(=O)N[C@@H](Cc1ccccc1)C(=O)N[C@@H](CC(C)C)C(=O)N[C@@H](CCCCN)C(=O)N[C@H](C(=O)N[C@@H](CC(C)C)C(=O)NCC(=O)N[C@H](C(=O)NCC(=O)N[C@@H](CCCCN)C(=O)N[C@@H](CCCCN)C(=O)N[C@H](C(=O)N[C@@H](CC(C)C)C(=O)N[C@H]1CSSC[C@@H](C(=O)O)NC(=O)[C@H](CC(C)C)NC(=O)CNC(=O)[C@H](CO)NC(=O)[C@H](C(C)C)NC(=O)CNC1=O)C(C)C)C(C)C)C(C)C [GIFLKVLGVGKKVLCGVSGLC],2.58,5.17,5.17,10.3,–,–
CC[C@H](C)[C@H](NC(=O)CNC(=O)[C@H](CCCCN)NC(=O)CNC(=O)[C@H](CO)NC(=O)[C@H](Cc1ccccc1)NC(=O)[C@H](CCCCN)NC(=O)[C@H](CO)NC(=O)[C@H](Cc1ccccc1)NC(=O)[C@H](CC(C)C)NC(=O)CN)C(=O)N[C@@H](CCCCN)C(=O)N[C@@H](CC(N)=O)C(=O)N[C@@H](Cc1ccccc1)C(=O)N[C@@H](CC(C)C)C(=O)N[C@H](C(=O)N[C@@H](CCCCN)C(=O)NCC(=O)N[C@H](C(=O)N[C@@H](CCCCN)C(=O)N[C@@H](Cc1cnc[nH]1)C(=O)N[C@H](C(=O)NCC(=O)N[C@@H](CCCCN)C(=O)N[C@@H](CCC(=O)O)C(=O)N[C@H](C(=O)NCC(=O)N[C@@H](CCSC)C(=O)N[C@@H](CC(=O)O)C(=O)N[C@H](C(=O)N[C@H](C(=O)N[C@@H](CCCN=C(N)N)C(=O)N[C@H](C(=O)NCC(=O)N[C@H](C(=O)N[C@@H](CC(=O)O)C(=O)N[C@H](C(=O)N[C@@H](C)C(=O)NCC(=O)N[C@H]1CSSC[C@@H](C(=O)O)NC(=O)[C@H](CCC(=O)O)NC(=O)CNC(=O)[C@H](CCCCN)NC(=O)[C@H]([C@@H](C)CC)NC(=O)[C@H](CCCCN)NC1=O)C(C)C)[C@@H](C)CC)[C@@H](C)O)[C@@H](C)CC)C(C)C)C(C)C)[C@@H](C)CC)C(C)C)[C@@H](C)CC [GLFSKFSGKGIKNFLIKGVKHIGKEVGMDVIRTGIDVAGCKIKGEC],0.266,0.512,0.266,0.512,–,–

# More lines, now with the values ahead:
MIC [1] [µM],MIC [2] [µM],MIC [3] [µM],MIC [4] [µM],MIC [5] [µM],MIC [6] [µM],SMILES
3.56,1.78,3.56,7.13,–,–,CC[C@H](C)[C@H](NC(=O)[C@H](CC(C)C)NC(=O)[C@@H](NC(=O)[C@H](Cc1ccccc1)NC(=O)[C@@H](NC(=O)[C@@H](N)CCC(N)=O)C(C)C)[C@@H](C)O)C(=O)N[C@@H](CCCCN)C(=O)NCC(=O)N[C@@H](C)C(=O)N[C@H](C(=O)N[C@@H](CCC(N)=O)C(=O)N[C@@H](CC(C)C)C(=O)N[C@H](C(=O)N[C@@H](CCCN=C(N)N)C(=O)N[C@@H](CCCCN)C(=O)N[C@H](C(=O)N[C@@H](CC(C)C)C(=O)NCC(=O)N[C@@H](CCC(=O)O)C(=O)N[C@@H](CCC(N)=O)C(=O)O)[C@@H](C)O)[C@@H](C)CC)[C@@H](C)O [QVFTLIKGATQLIRKTLGEQ]
2.87,5.74,1.44,5.74,–,–,CC[C@H](C)[C@H](NC(=O)[C@H](C)NC(=O)[C@H](CC(C)C)NC(=O)[C@H](CCC(=O)O)NC(=O)[C@H](CCCCN)NC(=O)[C@H](Cc1ccccc1)NC(=O)[C@@H](NC(=O)[C@H](CO)NC(=O)[C@H](CC(C)C)NC(=O)[C@H](Cc1ccccc1)NC(=O)[C@@H](N)CO)[C@@H](C)O)C(=O)N[C@@H](CC(N)=O)C(=O)N[C@@H](C)C(=O)N[C@@H](C)C(=O)N[C@@H](CCCCN)C(=O)N[C@@H](CC(N)=O)C(=O)N[C@@H](C)C(=O)NCC(=O)N[C@@H](CCC(N)=O)C(=O)N[C@@H](CO)C(=O)N[C@H](C(=O)N[C@@H](CC(C)C)C(=O)N[C@@H](Cc1cnc[nH]1)C(=O)N[C@H](C(=O)N[C@@H](CC(C)C)C(=O)N[C@@H](CO)C(=O)N[C@H]1CSSC[C@@H](C(=O)O)NC(=O)[C@H]([C@@H](C)O)NC(=O)[C@H](CCCCN)NC(=O)[C@H](CC(=O)O)NC(=O)[C@H](CC(C)C)NC(=O)[C@H](CCCCN)NC1=O)[C@@H](C)O)[C@@H](C)CC [SFLSTFKELAINAAKNAGQSILHTLSCKLDKTC]
–,–,–,–,≥ 78.9,39.4,CC[C@H](C)[C@H](NC(=O)[C@H](C)NC(=O)[C@@H](N)C(C)C)C(=O)N[C@@H](C)C(=O)N[C@@H](CC(C)C)C(=O)N[C@@H](CCCCN)C(=O)N[C@@H](C)C(=O)N[C@@H](C)C(=O)N[C@@H](Cc1cnc[nH]1)C(=O)N[C@@H](Cc1ccc(O)cc1)C(=O)N[C@@H](C)C(=O)N[C@H](C(=O)N[C@@H](Cc1cnc[nH]1)C(=O)N[C@@H](CCCCN)C(=O)N[C@@H](CCC(=O)O)C(=O)O)[C@@H](C)O [VAIALKAAHYATHKE]
3.4,1.7,3.4,6.8,–,–,CC[C@H](C)[C@H](NC(=O)[C@H](CC(C)C)NC(=O)[C@H](CC(C)C)NC(=O)[C@H](CC(=O)O)NC(=O)[C@H](CCCCN)NC(=O)[C@@H](NC(=O)[C@@H](NC(=O)CNC(=O)[C@H](CC(C)C)NC(=O)[C@@H](NC(=O)[C@@H](N)CO)C(C)C)[C@@H](C)O)C(C)C)C(=O)NCC(=O)N[C@@H](C)C(=O)NCC(=O)N[C@@H](CCCCN)C(=O)N[C@@H](CO)C(=O)N[C@@H](C)C(=O)N[C@@H](C)C(=O)N[C@@H](CCC(N)=O)C(=O)N[C@@H](CO)C(=O)N[C@H](C(=O)N[C@@H](CC(C)C)C(=O)N[C@H](C(=O)N[C@@H](C)C(=O)N[C@@H](CC(C)C)C(=O)N[C@@H](CO)C(=O)N[C@H]1CSSC[C@@H](C(=O)O)NC(=O)[C@H](CO)NC(=O)[C@H](CC(N)=O)NC(=O)[C@H](CO)NC(=O)[C@H](CC(C)C)NC(=O)[C@H](CCCCN)NC1=O)[C@@H](C)O)C(C)C [SVLGTVKDLLIGAGKSAAQSVLTALSCKLSNSC]
34.3,> 34.3,≥ 34.3,≥ 34.3,–,–,CC[C@H](C)[C@H](N)C(=O)N1CCC[C@H]1C(=O)N[C@@H](Cc1c[nH]c2ccccc12)C(=O)N[C@@H](CCCCN)C(=O)N[C@@H](CC(C)C)C(=O)N1CCC[C@H]1C(=O)N[C@@H](C)C(=O)N[C@H](C(=O)N[C@@H](Cc1ccccc1)C(=O)N[C@@H](CCCN=C(N)N)C(=O)N1CCC[C@H]1C(=O)N[C@H](C(=O)N[C@@H](CCC(=O)O)C(=O)N[C@@H](CCCN=C(N)N)C(=O)N1CCC[C@H]1C(=O)N[C@@H](Cc1ccccc1)C(=O)N[C@@H](CO)C(=O)N[C@@H](CCCCN)C(=O)N1CCC[C@H]1C(=O)N[C@@H](Cc1ccccc1)C(=O)N[C@@H](CS)C(=O)N[C@@H](CCCN=C(N)N)C(=O)N[C@@H](CCCCN)C(=O)N[C@@H](CC(=O)O)C(=O)O)C(C)C)[C@@H](C)O [IPWKLPATFRPVERPFSKPFCRKD]
